Laboratory results published in patent US8288432B2, “Tetrahydroindole derivatives as NADPH oxidase inhibitors” (Genkyotex SA, priority 2007, dated 2012).

Assays:
Assay type in all cases: cell-based, human
[1] = tested on: NOX activity in HUVEC; assay: H2DCF-DA (DCF fluorescence) ROS measurement in TGF-β stimulated HUVEC; conditions: 'usually'
Experimental: Human Umbilical Vein Endothelial Cells (HUVEC)
HUVEC are cultured in endothelial basal medium supplemented with hydrocortisone (1 μg/mL, CalbioChem), bovine brain extract (12 μg/mL), gentamicin (50 μg/mL, CalbioChem), amphotericin B (50 ng/mL, CalBioChem EGF (10 ng/mL, and 10% FCS until the fourth passage. When the fifth passage was started, cells were cultured with a lower concentration of FCS (2%) in the absence of EGF, if not indicated otherwise. All experiments were done with cells of the fifth passage. The cells were incubated with OxLDL (oxidized low-density lipoprotein) or its buffer as control for 24 h, before detection of O2^− formation.
4. 2′,7′-dichlorodihydrofluorescein diacetate (H2DCF-DA)
HUVEC were plated on coverslips and made quiescent overnight in 0.5% BSA before stimulation with TGF-β. Cells were loaded for 10 minutes with 5 μM CM-H2DCFDA in phenol-red-free medium in the dark and then treated with TGF-β (R&D Systems) in the presence or absence of compounds according to the invention. […] DCF fluorescence was visualized at an excitation wavelength of 488 nm and emission at 515 to 540 nm. […] For calculation, the absorbance at […] was normalized to absorbance at […] for each individual well. […] NOX activities were expressed as % of the activity in control cells. […]

[2] = tested on: NOX activity in DMSO-differentiated HL60 cells; assay: Amplex Red measurement of extracellular hydrogen peroxide (NOX activity) in DMSO-differentiated HL60 cells; conditions: DPI 10 μM, 'usually'
Experimental: Human acute myeloid leukemia cell line HL-60 was cultured in RPMI 1640 (Invitrogen) supplemented with 10% heat-inactivated calf serum, 2 mM glutamine, 100 U/mL penicillin (Sigma), and 100 μg streptomycin (Sigma) at 37° C. under a humidified atmosphere of 5% CO2. HL60 differentiation to the neutrophil phenotype was triggered by adding Me2SO (final concentration 1.25% v/v for 6 days) to the culture medium.
Extracellular hydrogen peroxide was measured using Amplex UltraRed (Molecular Probes). Cells were trypsinized (1× Trypsin-EDTA), collected by centrifugation, and resuspended in HBSS supplemented with 1% glucose. Cells were seeded into black 96-well plates at a density of 50'000 cells in 200 μl testing buffer (HBSS 1% glucose containing 0.005 U/mL horseradish peroxidase (Roche) and 50 μM Amplex Red in the presence or absence of compounds according to the invention. As a control, DPI was included at a final concentration of 10 μM The plates were placed in the fluorescent Optima Fluorescent plate reader and kept at 37° C. during 20 min. Fluorescence was measured for […] with excitation and emission wavelengths of 544 and 590 nm respectively. NOX activities were expressed as % of the activity in control cells. […]
The table 1 below summarizes the percentage of inhibition of NOX activity as measured by Amplex Red using DMSO-differentiated HL60 cells as described above: […]

[3] = tested on: NOX activity (ROS in cells); assay: Chemiluminescence (luminol) measurement of ROS in cells; conditions: 'usually'
Experimental: 3. Chemiluminescence (Luminol)
ROS was measured using the chemiluminescent probe luminol. Cells were cultured and plated as for Amplex Red except that the Amplex Red agent was replaced by 10 μg/mL luminol (Sigma 09235). Light emission was recorded continuously at 37° C. for 60 minutes using the luminescence function of the FluoStar Optima fluorescent plate reader. The mean of the four blank values was subtracted from each corrected value for each time point. NOX activities were expressed as % of the activity in control cells. Residual activity of DPI-treated cells was usually <10%.

[4] = tested on: NOX activity (superoxide formation in cells); assay: Nitroblue tetrazolium (NBT) test of intracellular and extracellular superoxide in cell cultures; conditions: DPI 10 μM, 'usually'
Experimental: The activity of the compounds according to the invention may be tested for their activity in the inhibition or reduction of formation of reactive oxygen species (ROS) from oxygen in cells. The activity of the compounds is tested in the following cell cultures by different techniques such as nitroblue tetrazolium, Amplex Red, Chemiluminescence (Luminol) and 2′,7′-dichlorodihydrofluorescein diacetate (H2DCF-DA) according to the protocols detailed below.
Human microglia cell line (HMC3, human microglia clone 3) (Janabi et al, 1995, Neurosci Lett 195:105) were cultured in MEM (Eagle's minimum essential medium) containing 10% FBS with 50 U/mL penicillin G sodium 50 μg/mL streptomycin sulfate, and incubated at 37° C. for 24 hours. IFN-γ (human IFN-γ, Roche. 11 040 596 001) was added to the culture medium for a final concentration of 10 ng/mL 24 h, before detection of O2^− formation. […]
Intracellular and extracellular superoxide was measured by a colorimetric technique using a quantitative nitroblue tetrazolium (NBT) test. SOD-inhibitable conversion of NBT to formazan, a fine blue precipitate, in the presence of superoxide anion was measured using Fluostar Optima spectrometer (BMG labtech). […] The absorption was measured at 630 nm. For calculation, the absorbance at 630 nm was normalized for each individual well. […] NOX activities were expressed as % of the activity in control cells. […]

Measured: Residual activity of DPI-treated cells (NOX activity as % of the activity in control cells)

c1ccc([I+]c2ccccc2)cc1 [DPI, Diphenyliodonium]
< 10%: all assays above
